Experiment: recombinant UMI read abundance after kanamycin selection (control-corrected) (log10(CPM+1)); higher = more efficient recombination; extreme values may be limits of the assay; sequences stand for … in AGTGCAGAGAAAATCGGCCAGTTTTCTCTGCCTGCAGTCCGCATGCCGTGGGACCCCTTGGGTTCTAACCTGTTGCCTAGATTTATGCAGCGGACTGCCTTTCTCCCAAAGTGATAAACCGG…AGGTTGGTTTCACT; site = the 11-nt donor
Procedure, shortened: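 Under IPTG (0.07 mM) plus kanamycin, or without selection, Escherichia coli carrying a UMI-tagged donor and donor-binding-loop pair library and a target plasmid for the IS621 bridge recombinase were plated in two replicates. Recombinant UMIs were PCR-amplified across the donor–target junction and sequenced. Counts were converted to CPM, averaged over replicates, scaled by control-derived factors and reported as log10(CPM+1).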
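Further: IS621 bridge recombinase in Escherichia coli cells against a fixed T5 target plasmid.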

Row | Sequence | recombinant UMI read abundance (log10)
1 | CGGAGTCCATGGACCGGTTTTCCCGGTAATCCGTATTTGAT (site CGGAGTCCTAT) | 1.98
2 | ATCCGAGCATGGACCGGTTTTCCCGGTAATCCGTATTTGAG (site ATCCCAGCTCT) | 0.172
3 | TACTTGACATGGACCGGTTTTCCCGGTAATCCGTATTTGGT (site TACTTGACTAG) | 0
4 | GGCCACCCATGGACCGGTTTTCCCGGTAATCCGTATTTGTT (site GGCCCCCCTAA) | 0.0711
5 | CTACCGCCATGGACCGGTTTTCCCGGTAATCCGTATTTGCG (site CTACCGCCTCG) | 0.268
6 | CCGTTCTCATGGACCGGTTTTCCCGGTAATCCGTATTTGGG (site CCCTTCTCTCC) | 0
7 | CTGGAAACATGGACCGGTTTTCCCGGTAATCCGTATTTGTA (site CTGGAAACTTT) | 1.81
8 | TCTTTACCATGGACCGGTTTTCCCGGTAATCCGTATTTGTA (site TCTTTACCTTA) | 0.00582
9 | CCCTTCTCATGGACCGGTTTTCCCGGTAATCCGTATTTGAG (site CCCTTCTCTCT) | 0.00554
10 | CTAACATCATGGACCGGTTTTCCCGGTAATCCGTATTTGCT (site CTAACATCTAG) | 2.12
11 | GCCACTGCATGGACCGGTTTTCCCGGTAATCCGTATTTGCC (site GCCACTGCTGG) | 1.63
12 | TCCAATACATGGACCGGTTTTCCCGGTAATCCGTATTTGCC (site TCCAATGCTGG) | 0
13 | AAGCACACATGGACCGGTTTTCCCGGTAATCCGTATTTGGG (site AAGCACTCTCC) | 0.222
14 | CTACTAGCATGGACCGGTTTTCCCGGTAATCCGTATTTGGA (site CTACTAACTTC) | 1.43
15 | GTGGAGGCATGGACCGGTTTTCCCGGTAATCCGTATTTGAG (site GTGGAGGCTCC) | 0.297
16 | GTGGAGGCATGGACCGGTTTTCCCGGTAATCCGTATTTGTA (site GTGGAGGCTTA) | 2.86
17 | GTCTGCCCATGGACCGGTTTTCCCGGTAATCCGTATTTGAG (site GTCTGCCCTCT) | 0.0162
18 | GTAATAACATGGACCGGTTTTCCCGGTAATCCGTATTTGGC (site GTAATAACTGC) | 2.43
19 | CTAGTATCATGGACCGGTTTTCCCGGTAATCCGTATTTGTC (site CTAGTATCTGT) | 2.65

Row | Sequence | recombinant UMI read abundance (log10)
20 | GCGAAAACATGGACCGGTTTTCCCGGTAATCCGTATTTGCT (site GCGAAAACTAC) | 0
21 | GTTCCAGCATGGACCGGTTTTCCCGGTAATCCGTATTTGCT (site GTTCCAGCTAG) | 1.06
22 | CTGCTCCCATGGACCGGTTTTCCCGGTAATCCGTATTTGCT (site CTGCTACCTAG) | 0
23 | TGGACGTCATGGACCGGTTTTCCCGGTAATCCGTATTTGTT (site TGGACGTCTAA) | 0.483
24 | TAATGAGCATGGACCGGTTTTCCCGGTAATCCGTATTTGTG (site TAATGAGCTCT) | 0.133
25 | GGTACGTCATGGACCGGTTTTCCCGGTAATCCGTATTTGTT (site GGTACGTCTAA) | 0.31
26 | ACTGAGACATGGACCGGTTTTCCCGGTAATCCGTATTTGGT (site AGTGAGACTAC) | 0.0694
27 | GTGGTCGCATGGACCGGTTTTCCCGGTAATCCGTATTTGCG (site GTAGTCGCTCG) | 0.519
28 | CACGCCTCATGGACCGGTTTTCCCGGTAATCCGTATTTGCC (site CACCCCTCTGG) | 1.65
29 | ATCTACACATGGACCGGTTTTCCCGGTAATCCGTATTTGCT (site GTCTACACTAG) | 1.41
30 | ACACGAGCATGGACCGGTTTTCCCGGTAATCCGTATTTGTC (site ACACGAACTGA) | 2.63
31 | TCACGTCCATGGACCGGTTTTCCCGGTAATCCGTATTTGGC (site TCACGTCCTGC) | 0
32 | AGGAAGACATGGACCGGTTTTCCCGGTAATCCGTATTTGCA (site AAGAAGACTTT) | 0.0128
33 | ATGGAGTCATGGACCGGTTTTCCCGGTAATCCGTATTTGGA (site ATGGAGTCTTC) | 2.86
34 | TTTGCGGCATGGACCGGTTTTCCCGGTAATCCGTATTTGCC (site TTTGCGGCTTG) | 0.0109
35 | CATCATGCATGGACCGGTTTTCCCGGTAATCCGTATTTGTT (site CATCATGCTAA) | 1.58
36 | CTGCGACCATGGACCGGTTTTCCCGGTAATCCGTATTTGCT (site CTGCCACCTAG) | 0.0046
37 | TGGAATCCATGGACCGGTTTTCCCGGTAATCCGTATTTGTT (site CGGAATCCTAA) | 0
38 | TGGACTACATGGACCGGTTTTCCCGGTAATCCGTATTTGAC (site TGGACTACTGT) | 1.55

— the supplement of paper PMC11208160
